Molecular target: T1, HR domain of chicken transitin (HR) (Gallus gallus, UniProt Q90831)
T1 construct: entire C-terminal heptad repeat (HR) domain, more than 50 LQVEHGD repeats; T7- or His-tag fusion protein, expressed in bacteria
Experiment: malachite green phosphate release
Assay type: biochemical
Settings: 10 mM MgCl2, pH 7.5, 25°C

T1 sequence (Q90831 323-1840 limits assumed): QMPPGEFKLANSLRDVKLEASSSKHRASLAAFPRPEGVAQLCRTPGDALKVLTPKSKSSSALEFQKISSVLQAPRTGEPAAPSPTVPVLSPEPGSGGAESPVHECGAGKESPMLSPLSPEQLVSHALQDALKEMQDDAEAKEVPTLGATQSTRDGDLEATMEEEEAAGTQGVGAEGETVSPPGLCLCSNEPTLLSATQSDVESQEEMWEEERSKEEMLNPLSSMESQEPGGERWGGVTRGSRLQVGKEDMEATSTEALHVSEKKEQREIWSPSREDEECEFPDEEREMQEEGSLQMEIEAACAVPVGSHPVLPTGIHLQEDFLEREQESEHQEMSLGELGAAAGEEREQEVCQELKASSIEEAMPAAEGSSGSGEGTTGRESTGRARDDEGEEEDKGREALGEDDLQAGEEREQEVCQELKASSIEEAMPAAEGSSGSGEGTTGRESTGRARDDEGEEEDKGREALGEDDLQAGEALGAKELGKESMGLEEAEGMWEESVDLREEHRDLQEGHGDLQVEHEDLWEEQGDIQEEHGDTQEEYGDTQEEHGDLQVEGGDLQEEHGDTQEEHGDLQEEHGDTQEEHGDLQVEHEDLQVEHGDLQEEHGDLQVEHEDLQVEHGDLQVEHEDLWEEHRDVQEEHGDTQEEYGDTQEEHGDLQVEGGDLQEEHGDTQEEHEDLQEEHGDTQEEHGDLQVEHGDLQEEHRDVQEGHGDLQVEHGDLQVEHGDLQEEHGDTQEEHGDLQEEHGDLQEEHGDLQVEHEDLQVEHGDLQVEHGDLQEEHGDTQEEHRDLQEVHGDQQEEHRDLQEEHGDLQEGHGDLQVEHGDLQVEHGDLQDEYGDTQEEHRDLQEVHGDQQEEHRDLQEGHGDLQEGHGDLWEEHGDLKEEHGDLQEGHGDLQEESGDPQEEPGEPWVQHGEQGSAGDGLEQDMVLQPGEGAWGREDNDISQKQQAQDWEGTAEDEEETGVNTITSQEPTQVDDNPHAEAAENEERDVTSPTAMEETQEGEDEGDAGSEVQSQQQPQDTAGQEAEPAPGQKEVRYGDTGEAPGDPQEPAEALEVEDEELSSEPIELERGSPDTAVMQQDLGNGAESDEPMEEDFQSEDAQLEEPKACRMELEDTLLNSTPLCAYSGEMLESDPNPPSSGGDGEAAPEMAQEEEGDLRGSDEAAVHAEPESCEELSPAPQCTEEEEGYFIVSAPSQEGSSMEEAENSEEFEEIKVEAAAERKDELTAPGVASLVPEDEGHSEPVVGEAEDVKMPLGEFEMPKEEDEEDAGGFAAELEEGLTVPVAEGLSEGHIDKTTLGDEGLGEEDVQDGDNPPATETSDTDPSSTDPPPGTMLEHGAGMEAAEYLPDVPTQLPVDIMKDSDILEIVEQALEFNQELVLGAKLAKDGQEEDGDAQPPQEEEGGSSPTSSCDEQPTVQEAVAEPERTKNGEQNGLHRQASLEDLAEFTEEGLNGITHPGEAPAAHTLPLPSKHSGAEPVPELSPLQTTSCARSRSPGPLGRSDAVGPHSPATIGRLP

SMILES: Nc1ncnc2c1ncn2[C@@H]1O[C@H](COP(=O)(O)OP(=O)(O)OP(=O)(O)O)[C@@H](O)[C@H]1O [ATP]
- malachite green phosphate release (1 mM ATP): The HR domain of transitin has ATPase (Fig. 4a) as well as GTPase (Fig. 4b) activity

SMILES: Nc1nc2c(ncn2[C@@H]2O[C@H](COP(=O)(O)OP(=O)(O)OP(=O)(O)O)[C@@H](O)[C@H]2O)c(=O)[nH]1 [GTP]
- malachite green phosphate release (1 mM GTP): The HR domain of transitin has ATPase (Fig. 4a) as well as GTPase (Fig. 4b) activity

From publication PMC2075511, “Molecular evolution of type VI intermediate filament proteins” (BMC Evolutionary Biology, 2007)
